Measurements reported in patent US8642640B2, “1-phenylpyrrole derivatives” (Exelixis, Inc., priority 2008, dated 2014).

Biological target: T1, human mineralocorticoid receptor (hMR) (Homo sapiens, UniProt P08235)
T1 construct: expressed in transfected cells; host or cells: HEK293
T1 sequence (P08235 726-964 limits assumed): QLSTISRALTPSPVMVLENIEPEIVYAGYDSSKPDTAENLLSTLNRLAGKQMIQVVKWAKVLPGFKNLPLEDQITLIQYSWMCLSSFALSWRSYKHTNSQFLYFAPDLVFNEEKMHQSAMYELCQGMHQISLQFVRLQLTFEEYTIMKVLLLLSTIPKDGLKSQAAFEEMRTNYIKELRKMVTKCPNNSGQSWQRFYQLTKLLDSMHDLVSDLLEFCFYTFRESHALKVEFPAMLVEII
Assay: GAL4-hMR-LBD luciferase reporter assay in HEK293 cells with 1 nM aldosterone (Test Example 1);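 for Imax: 0% is DMSO-only control and 100% is 1 nM aldosterone alone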
Assay type: cell-based
Settings: for IC50: concentration showing Imax/2, HEK293, GAL4-hMR-LBD, 1 nM aldosterone, overnight, read-out: ICmax50; for Emax: HEK293, read-out: Imax
Method: A plasmid pM-hMR-LBD expressing GAL4-hMR receptor, which has a ligand binding domain (LBD, corresponding to approximately 308 amino acids at the carboxy terminus) of human mineralocorticoid receptor (hMR, NM_000901) bonded to a DNA binding domain of yeast transcription factor GAL4 (corresponding to 147 amino acids at the amino terminus), was prepared. Reporter assay was conducted by using a reporter plasmid (such as plasmid pFR-Luc of […] CLONING SYSTEMS) including a luciferase gene, having a sequence (UAS sequence) which binds to the DNA binding domain of GAL4.
The plasmid pM-hMR-LBD and the reporter plasmid as obtained above were gene transferred into renal cell line HEK293 of human fetus by lipofection. On the next day, cells were collected by trypsin treatment, and dispensed with DMEM culture medium containing 5% of FBS treated by activated charcoal, to a white 96-well plate (Costar) with the amount of 95 microliter per well.
The test compounds were used as dissolved in dimethyl sulfoxide at a predetermined concentration, and the test compounds suitably diluted with culture media were added to the cells on the white 96-well plate so that the final concentration becomes 0.1%. […] After the addition, cultivation was carried out overnight.
On the next day, the culture media was removed, and then luciferase substrate (Wako Pure Chemical Industries, Ltd.) was prepared in accordance with the attached document and were added to each well by 50 microliters. Stirring was conducted for approximately 30 minutes, and the amount of luminescence was measured for each well by using Analyst (Molecular Devices), to obtain luciferase activity. A graph which plots relative luciferase activity values, when the luciferase activity value of Control group 1 was taken as 0% and the luciferase activity value of Control group 2 was taken as 100%, for each of the amount of the test compound addition group was made.

Row | Structure (SMILES) | IC50 [nM] | Emax [%]
1 | Cc1c(C(=O)Nc2ccc(S(C)(=O)=O)cc2)cc(CCO)n1-c1ccc(Cl)cc1C(F)(F)F (single isomer, unassigned) [Example 1 - isomer B, 1-[4-Chloro-2-(trifluoromethyl)phenyl]-5-(2-hydroxyethyl)-2-methyl-N-[4-(methylsulfonyl)phenyl]-1H-pyrrole-3-carboxamide] | > 1000 | –
2 | Cc1c(C(=O)Nc2ccc(S(C)(=O)=O)cc2)cc(CCO)n1-c1ccc(F)cc1Cl (single isomer, unassigned) [Example 3 - isomer A, 1-(2-Chloro-4-fluorophenyl)-5-(2-hydroxyethyl)-2-methyl-N-[4-(methylsulfonyl)phenyl]-1H-pyrrole-3-carboxamide] | 21 | 114
3 | Cc1c(C(=O)Nc2ccc(S(C)(=O)=O)cc2)cc(CCO)n1-c1ccc(F)cc1Cl (single isomer, unassigned) [Example 3 - isomer B, 1-(2-Chloro-4-fluorophenyl)-5-(2-hydroxyethyl)-2-methyl-N-[4-(methylsulfonyl)phenyl]-1H-pyrrole-3-carboxamide] | > 1000 | –
4 | Cc1c(C(=O)Nc2ccc(S(C)(=O)=O)cc2)cc(C[C@H](C)O)n1-c1ccc(F)cc1C(F)(F)F (single isomer, unassigned) [Example 5 - isomer B] | > 1000 | –
5 | Cc1c(C(=O)Nc2ccc(S(C)(=O)=O)cc2)cc(C[C@H](C)O)n1-c1ccc(Cl)cc1C(F)(F)F (single isomer, unassigned) [Example 6 - isomer B] | > 1000 | –
6 | Cc1c(C(=O)Nc2ccc(S(C)(=O)=O)cc2)cc(C[C@H](C)O)n1-c1ccc(F)cc1OC(F)F (single isomer, unassigned) [Example 9 - isomer B] | > 1000 | –
7 | Cc1c(C(=O)Nc2ccc(S(C)(=O)=O)cc2)cc(C[C@H](C)O)n1-c1ccc(Cl)cc1OC(F)F (single isomer, unassigned) [Example 11 - isomer B] | > 1000 | –
8 | Cc1c(C(=O)Nc2ccc(S(C)(=O)=O)cc2)cc(C[C@H](C)O)n1-c1ccc(Cl)cc1-c1ccc(F)cc1 (single isomer, unassigned) [Example 50 - isomer A] | > 1000 | –
9 | Cc1c(C(=O)Nc2ccc(S(C)(=O)=O)cc2)cc(C[C@H](C)O)n1-c1ccc(Cl)cc1-c1ccc(F)cc1 (single isomer, unassigned) [Example 50 - isomer B] | 1.2 | 104
10 | Cc1c(C(=O)Nc2ccc(S(C)(=O)=O)cc2)cc(CCF)n1-c1ccc(F)cc1OC(F)F (single isomer, unassigned) [Example 54 - isomer B, 1-[2-(Difluoromethoxy)-4-fluorophenyl]-5-(2-fluoroethyl)-2-methyl-N-[4-(methylsulfonyl)phenyl]-1H-pyrrole-3-carboxamide] | > 1000 | –
11 | Cc1c(C(=O)Nc2ccc(S(C)(=O)=O)cc2)cc(CCO)n1-c1ccc(Cl)cc1C(F)(F)F [Example 1, 1-[4-Chloro-2-(trifluoromethyl)phenyl]-5-(2-hydroxyethyl)-2-methyl-N-[4-(methylsulfonyl)phenyl]-1H-pyrrole-3-carboxamide] | 11 | 110
12 | Cc1c(C(=O)Nc2ccc(S(C)(=O)=O)cc2)cc(CCO)n1-c1ccc(F)cc1Cl [Example 3, 1-(2-Chloro-4-fluorophenyl)-5-(2-hydroxyethyl)-2-methyl-N-[4-(methylsulfonyl)phenyl]-1H-pyrrole-3-carboxamide] | 30 | 109
13 | Cc1c(C(=O)Nc2ccc(S(C)(=O)=O)cc2)cc(C[C@H](C)O)n1-c1ccc(F)cc1C(F)(F)F [Example 5, 1-[4-Fluoro-2-(trifluoromethyl)phenyl]-5-[(2S)-2-hydroxypropyl]-2-methyl-N-[4-(methylsulfonyl)phenyl]-1H-pyrrole-3-carboxamide] | 3.9 | 125
14 | Cc1c(C(=O)Nc2ccc(S(C)(=O)=O)cc2)cc(C[C@H](C)O)n1-c1ccc(Cl)cc1C(F)(F)F [Example 6, 1-[4-Chloro-2-(trifluoromethyl)phenyl]-5-[(2S)-2-hydroxypropyl]-2-methyl-N-[4-(methylsulfonyl)phenyl]-1H-pyrrole-3-carboxamide] | 6.2 | 92
15 | Cc1c(C(=O)Nc2ccc(S(C)(=O)=O)cc2)cc(C[C@H](C)O)n1-c1ccc(F)cc1OC(F)F [Example 9, 1-[2-(Difluoromethoxy)-4-fluorophenyl]-5-[(2S)-2-hydroxypropyl]-2-methyl-N-[4-(methylsulfonyl)phenyl]-1H-pyrrole-3-carboxamide] | 41 | 114
16 | Cc1c(C(=O)Nc2ccc(S(C)(=O)=O)cc2)cc(C[C@H](C)O)n1-c1ccc(Cl)cc1OC(F)F [Example 11, 1-[4-Chloro-2-(difluoromethoxy)phenyl]-5-[(2S)-2-hydroxypropyl]-2-methyl-N-[4-(methylsulfonyl)phenyl]-1H-pyrrole-3-carboxamide] | 13 | 107

Results, then the compound that gave them:

Row | IC50 [nM] | Emax [%] | Structure (SMILES)
17 | 3.1 | 113 | Cc1c(C(=O)Nc2ccc(S(N)(=O)=O)c(Cl)c2)cc(C[C@H](C)O)n1-c1ccc(F)cc1C(F)(F)F (single isomer, unassigned) [Example 12 - isomer A]
18 | > 1000 | – | Cc1c(C(=O)Nc2ccc(S(N)(=O)=O)c(Cl)c2)cc(C[C@H](C)O)n1-c1ccc(F)cc1C(F)(F)F (single isomer, unassigned) [Example 12 - isomer B]
19 | > 1000 | – | Cc1c(C(=O)Nc2ccc(S(C)(=O)=O)cc2)cc(C[C@H](C)O)n1-c1ccc(F)cc1OC(F)(F)F (single isomer, unassigned) [Example 16 - isomer B]
20 | 6.1 | 99 | Cc1cc(NC(=O)c2cc(C[C@H](C)O)n(-c3ccc(F)cc3OC(F)F)c2C)ccc1S(C)(=O)=O (single isomer, unassigned) [Example 22 - isomer A]
21 | > 1000 | – | Cc1cc(NC(=O)c2cc(C[C@H](C)O)n(-c3ccc(F)cc3OC(F)F)c2C)ccc1S(C)(=O)=O (single isomer, unassigned) [Example 22 - isomer B]
22 | > 1000 | – | Cc1c(C(=O)Nc2ccc(S(C)(=O)=O)cc2)cc(C[C@H](C)O)n1-c1ccc(F)cc1Cl (single isomer, unassigned) [Example 40 - isomer B]
23 | > 1000 | – | Cc1c(C(=O)Nc2ccc(S(C)(=O)=O)cc2)cc(C[C@H](C)O)n1-c1ccc(Cl)cc1OC(F)(F)F (single isomer, unassigned) [Example 42 - isomer A]
24 | > 1000 | – | Cc1c(C(=O)Nc2ccc(S(C)(=O)=O)cc2)cc(C[C@H](C)O)n1-c1ccc(Cl)cc1Cl (single isomer, unassigned) [Example 43 - isomer B]
25 | > 1000 | – | CCc1c(C(=O)Nc2ccc(S(C)(=O)=O)cc2)cc(C[C@H](C)O)n1-c1ccc(F)cc1Cl (single isomer, unassigned) [Example 44 - isomer A]
26 | 1.9 | 105 | Cc1c(C(=O)Nc2ccc(S(C)(=O)=O)cc2)cc(C[C@H](C)O)n1-c1ccc(Cl)cc1Oc1ccc(F)cc1 (single isomer, unassigned) [Example 45 - isomer A]
27 | > 1000 | – | Cc1c(C(=O)Nc2ccc(S(C)(=O)=O)cc2)cc(C[C@H](C)O)n1-c1ccc(Cl)cc1Oc1ccc(F)cc1 (single isomer, unassigned) [Example 45 - isomer B]
28 | > 1000 | – | Cc1c(C(=O)Nc2ccc(S(N)(=O)=O)c(Cl)c2)cc(C[C@H](C)O)n1-c1ccc(F)cc1Cl (single isomer, unassigned) [Example 49 - isomer A]
29 | 4.5 | 104 | Cc1c(C(=O)Nc2ccc(S(N)(=O)=O)c(Cl)c2)cc(C[C@H](C)O)n1-c1ccc(F)cc1Cl (single isomer, unassigned) [Example 49 - isomer B]
30 | > 1000 | – | Cc1cc(Cl)ccc1-n1c(CCF)cc(C(=O)Nc2ccc(S(C)(=O)=O)cc2)c1C (single isomer, unassigned) [Example 51 - isomer B, 1-(4-Chloro-2-methylphenyl)-5-(2-fluoroethyl)-2-methyl-N-[4-(methylsulfonyl)phenyl]-1H-pyrrole-3-carboxamide]
31 | 6.8 | 108 | Cc1c(C(=O)Nc2ccc(S(N)(=O)=O)c(Cl)c2)cc(C[C@H](C)O)n1-c1ccc(F)cc1C(F)(F)F [Example 12, N-[4-(Aminosulfonyl)-3-chlorophenyl]-1-[4-fluoro-2-(trifluoromethyl)phenyl]-5-[(2S)-2-hydroxypropyl]-2-methyl-1H-pyrrole-3-carboxamide]
